From patent US8247377B2, “Non-steroidal glucocorticoid inhibitors and their use in treating inflammation, allergy and auto-immune conditions” (Glaxo Group Limited, priority 2006, dated 2012)

Tests used:
NFκB = NFκB agonist assay in A549 SPAP cells; type: cell-based; conditions: Homo sapiens; for Emax: A549, A549 SPAP cells, >85% = full agonist, ≧20% = partial or full agonist, read-out: average maximum asymptote in the NFkB assay; for IC50: A549 SPAP cells, TNFα 3.2 ng/ml, read-out: pIC50 for the NFkB assay (converted);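 for average maximum asymptote in the NFkB assay: maximum inhibition of the TNFα-induced NFκB-driven signal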
Source text: Human lung carcinoma A549 cell line (ECACC No. 86012804) has been stably transfected in house with a plasmid containing an ELAM promoter sequence that has a NFκB response element within it. Stimulation of the cell line with TNFα results in intracellular signal transduction and ultimately translocation of NFκB into the nucleus. This activates the inserted DNA sequence resulting in transcription of the integrated SPAP gene, which is quantified using a colorimetric assay. […] The stably transfected cell line was grown as a monolayer in DMEM supplemented with FCS-HI (10%), Non-essential amino acids (1%), L-Glutamine (2 mM), Pen/Strep (1%) and Geneticin (50 mg/ml).
A 70% confluent T225 flask of A549 SPAP cells was harvested by centrifugation for 5 min at 200 g, resuspended in assay buffer (DMEM supplemented with 10% FCS 2×HI, 2 mM L-Glutamine, 1% Pen/Strep and Non essential amino acids) and diluted to 0.16×10^6/ml. 60 μl of cell solution was dispensed to each well of clear Nunc 384-well plates, containing compound at the required concentration. Plates were incubated for 1 h at 37° C., 95% humidity, 5% CO2 before 10 μl of TNFα was added at final concentration of 3.2 ng/ml and then returned to the cell incubator for 15 h. Plates were equilibrated to room temperature for 1 h prior to the addition of 25 μl of pNPP buffer (1M Diethanolamine pH 9.8, 0.5 mM MgCl2, 0.28M NaCl, 2 mg/ml pNPP) to each well of assay plates. The plates were covered to protect the reagents from light, and then incubated at room temperature for approximately 1 hour before reading them on an Ascent using a 405 nm single filter. Dose response curves were constructed from which pIC50 values were estimated.

MMTV promoter = test: MMTV agonist assay in A549 MMTV cells; type: cell-based; conditions: Homo sapiens, A549, 6 h, >85% = full agonist, >20% and <85% = partial or efficacy selective agonist, read-out: average maximum asymptote in the MMTV agonist assay
Source text: Human lung carcinoma A549 cell line (ECACC No. 86012804) has been stably transfected in house with a plasmid containing a renilla luciferase reporter with an MMTV promoter. Stimulation of the cell line with GR agonists results in intracellular signal transduction and ultimately translocation of GR into the nucleus. This activates the inserted DNA sequence resulting in transcription of the integrated luciferase gene, which is quantified using a light emission. The stably transfected cell line was grown as a monolayer in DMEM supplemented with FCS-HI (10%), Non-essential amino acids (1%), L-Glutamine (2 mM), Pen/Strep (1%) and Geneticin (50 mg/ml).
A 90% confluent T175 flask of A549 MMTV cells was harvested by centrifugation for 5 min at 200 g, resuspended in assay buffer (DMEM supplemented with 10% FCS 2×HI, 2 mM Glutamax, Non essential amino acids and 25 mM HEPES) and diluted to 0.1×10^6/ml. 70 μl of cell solution was dispensed to each well of white Nunc 384-well plates, containing compound at the required concentration. Plates were incubated for 6 h at 37° C., 95% humidity, 5% CO2. Plates were equilibrated to room temperature for 1 h prior to the addition of 10 μl of Renilla substrate to each well of assay plates. The plates were covered to protect the reagents from light, and then incubated at room temperature for approximately 15 mins before reading them on a Viewlux. Dose response curves were constructed from which pEC50 and maximum asymptote values were estimated.

glucocorticoid receptor = target: T1, glucocorticoid receptor (Homo sapiens, UniProt P04150); test: Glucocorticoid receptor binding assay (fluorescence polarisation); conditions: competition with Alexa 555 fluorescently-labelled dexamethasone derivative, full length glucocorticoid receptor; read-out: glucocorticoid binding pIC50 (converted)
T1 construct: a partially purified full length glucocorticoid receptor
T1 sequence (P04150 1-777): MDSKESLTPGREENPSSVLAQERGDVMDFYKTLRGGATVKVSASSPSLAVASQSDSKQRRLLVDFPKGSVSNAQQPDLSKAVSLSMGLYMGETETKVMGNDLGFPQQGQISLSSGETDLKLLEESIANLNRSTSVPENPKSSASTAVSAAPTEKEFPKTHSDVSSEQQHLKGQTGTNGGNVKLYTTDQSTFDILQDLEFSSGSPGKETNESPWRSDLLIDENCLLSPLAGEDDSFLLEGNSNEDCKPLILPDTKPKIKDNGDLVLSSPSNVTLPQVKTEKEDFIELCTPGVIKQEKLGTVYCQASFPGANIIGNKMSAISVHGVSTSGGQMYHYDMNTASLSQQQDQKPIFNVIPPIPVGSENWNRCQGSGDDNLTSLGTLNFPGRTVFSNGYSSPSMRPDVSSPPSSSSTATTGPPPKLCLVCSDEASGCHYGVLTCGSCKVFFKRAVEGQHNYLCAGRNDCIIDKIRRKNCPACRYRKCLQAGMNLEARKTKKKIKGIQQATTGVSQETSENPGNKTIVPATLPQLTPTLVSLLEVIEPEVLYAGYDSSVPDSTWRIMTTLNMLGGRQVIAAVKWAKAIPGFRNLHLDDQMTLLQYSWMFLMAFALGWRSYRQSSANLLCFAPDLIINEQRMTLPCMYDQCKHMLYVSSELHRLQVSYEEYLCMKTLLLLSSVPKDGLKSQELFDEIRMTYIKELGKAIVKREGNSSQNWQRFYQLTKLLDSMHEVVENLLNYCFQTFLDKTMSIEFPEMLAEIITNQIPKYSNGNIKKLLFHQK
Description: Compounds were solvated and diluted in DMSO, and transferred directly into assay plates. Fluorescent dexamethasone and a partially purified full length glucocorticoid receptor were added to the plates, together with buffer components to stabilise the GR protein and incubated at room temperature for 2 hrs in the dark. Binding of each compound was assessed by analysing the displacement of fluorescent ligand by measuring the decrease in fluorescence polarisation signal from the mixture. Dose response curves were constructed from which pIC50 values were estimated.

Work on `CCN(CC(O)(CNC(=O)c1cnn(-c2ccccc2Cl)c1N)C(F)(F)F)C(=O)c1c(F)cccc1F` (racemic) [Example 40 (racemic), 5-amino-1-(2-chlorophenyl)-N-(2-{[[(2,6-difluorophenyl)carbonyl](ethyl)amino]methyl}-3,3,3-trifluoro-2-hydroxypropyl)-1H-pyrazole-4-carboxamide] yielded an Emax (NFκB) greater than 85%, an IC50 (NFκB) of less than 1000 nM and an Emax (MMTV promoter) greater than 85%. It also gave an IC50 (glucocorticoid receptor) of no more than 316 nM.

`Nc1c(C(=O)NCC(O)(CN(CCF)C(=O)c2c(F)cccc2Cl)C(F)(F)F)cnn1-c1ccc(F)cc1` (racemic) [Example 29 (racemic), 5-amino-N-(2-{[[(2-chloro-6-fluorophenyl)carbonyl](2-fluoroethyl)amino]methyl}-3,3,3-trifluoro-2-hydroxypropyl)-1-(4-fluorophenyl)-1H-pyrazole-4-carboxamide] gave an Emax (NFκB) greater than 85%, an IC50 (NFκB) of less than 1000 nM and an Emax (MMTV promoter) greater than 85%. It also gave an IC50 (glucocorticoid receptor) of no more than 316 nM.

Work on `Nc1c(C(=O)NCC(O)(CNC(=O)c2c(Cl)cccc2C(F)(F)F)C(F)(F)F)cnn1-c1ccc(F)cc1` (racemic) [Example 44 (racemic), 5-Amino-N-{2-[({[2-chloro-6-(trifluoromethyl)phenyl]carbonyl}amino)methyl]-3,3,3-trifluoro-2-hydroxypropyl}-1-(4-fluorophenyl)-1H-pyrazole-4-carboxamide] yielded an Emax (NFκB) of no less than 20%, an IC50 (NFκB) of less than 1000 nM and an Emax (MMTV promoter) of 20 to 85%. For the same molecule, the IC50 (glucocorticoid receptor) was no more than 316 nM.

`Nc1c(C(=O)NCC(O)(CNC(=O)c2c(F)cccc2C(F)(F)F)C(F)(F)F)cnn1-c1ccc(F)cc1` (single isomer, unassigned) [Example 19 Enantiomer 1, 5-amino-1-(4-fluorophenyl)-N-{3,3,3-trifluoro-2-[({[2-fluoro-6-(trifluoromethyl)phenyl]carbonyl}amino)methyl]-2-hydroxypropyl}-1H-pyrazole-4-carboxamide] gave an Emax (NFκB) of no less than 20%, an IC50 (NFκB) of less than 1000 nM and an Emax (MMTV promoter) of 20 to 85%. It also gave an IC50 (glucocorticoid receptor) of no more than 316 nM.
